Laboratory results published in patent US20050123571A1, “Modulation of apoptosis” (priority 2003, published 2005).
Where a SMILES comes first, the peptide text is derived from it. The star is where a group is joined. Cbz = O=C(OCc1ccccc1)*; CH2F = FC*

Tests used:
Ian4−/− BBDP T cells = experiment: Mitochondrial membrane potential (Δψm) by MitoLight flow microfluorometry; format: cell-based, rat; conditions: control incubation with uncoupler, 50 μM, 15 minutes, 37° C.; positive control for dissipation of Δψm
Protocol: Flat bottom 6-well culture plates (Falcon, Franklin Lakes, N.J.) were incubated with 10 μg/well anti-CD3 mAb, 10 μg/well anti-CD28 mAb, or both, in PBS at 4° C. After overnight incubation, plates were rinsed three times with PBS. Nylon wool-purified T cells were cultured in antibody-coated wells at 6×10^6 cells/well in 3 ml complete AIM-V media (AIM-V plus 55 μM 2-mercaptoethanol, Sigma) for 17, 40, or 68 hr in a humidified incubator at 37° C. with 5% CO2. Un-stimulated cells were incubated in complete AIM-V alone. Mitochondrial membrane potential (Δψm) of thymocytes and T cells was measured by two- or three-color flow microfluorometry using MitoLight™ (Chemicon, Temecula, Calif.) alone or in combination with biotin-conjugated anti-αβTCR mAb. Mitolight™ was employed according to the manufacturer's instructions. It is a lipophilic cation with a cellular distribution similar to that of JC-1. […] When the concentration of JC-1 reaches a threshold, it forms aggregate, causing a shift in its absorbed and emitted fluorescence (S. T. Smiley et al., Proc. Natl. Acad. Sci. U.S.A 88, 3671-3675 (1991)). […] For each experiment control and BBDP T cells were analyzed for both red and green fluorescence after Mitolight™ labeling. […] For each analysis, a minimum of 10,000 events was analyzed.

[1] = system: Lymph node T cells from BBDP rats; experiment: Caspase inhibition, sub-diploid DNA; format: cell-based, rat; conditions: 17 hr of culture, varying concentrations
Protocol: The percentage of T cells with sub-diploid DNA was measured as described (I. Nicoletti, G. Migliorati, M. C. Pagliacci, F. Grignani, C. Riccardi, J. Immunol. Methods 139, 271-279 (1991)). Briefly, freshly isolated or in vitro stimulated lymph node T cells were washed twice with PBS and centrifuged at 1500 rpm for 5 min. Pellets (2×10^6) were resuspended in 200 μl of PBS, fixed in 70% cold ethanol, and stored at 4° C. until used. At the time of analysis, cells were washed twice with PBS and incubated at 25° C. for 40 min in 500 μl of PBS containing 0.1% Triton X-100 and 50 μg of RNase (Boehringer Mannheim, Indianapolis, Ind.). Propidium iodide (10 μg, Sigma, St. Louis, Mo.) was added, and the suspension was incubated in the dark for 15 min. DNA content was determined by flow microfluorometry using a FACStarR® instrument (Becton Dickinson, San Jose, Calif.). Lymphoid cells were identified electronically by their forward and side light-scatter characteristics. For each analysis, a minimum of 10,000 events was analyzed.
Lymph node T cells from BBDP rats were prepared as described above and cultured in AIM-V medium in the presence or absence of varying concentrations of the caspase inhibitors Z-VAD-FMK, Z-VDVAD, Z-DEVD, D-IETD, and Z-LEHD obtained from R&D Systems (Minneapolis, Minn.). […] Cells were then harvested, and the percentage of cells with sub-diploid DNA was determined as above.

N#CC(C#N)=NNc1cccc(Cl)c1 [CCCP, carbonyl cyanide m-chlorophenyl-hydrazone] was tested, and the “percentage of T cells with high Δψm” value (Ian4−/− BBDP T cells) was roughly 4%.

In the case of COC(=O)C[C@H](NC(=O)[C@H](C)NC(=O)[C@@H](NC(=O)OCc1ccccc1)C(C)C)C(=O)CF [Z-VAD-frnk] (Cbz-Val-Ala-Asp(OMe)-CH2F), the “apoptosis of Ian4−/− T cells (percentage of cells with sub-diploid DNA)” value [1] is reported as “prevented apoptosis”.
